Counter-ions that a name gives are not always drawn.
Key:
[1] = system: Gram-negative or Gram-positive bacteria, such as Staphylococcus aureus, Staphylococcus hemolyticus, Salmonella typhosa, Shigella dysenteriae, Shigella …; details: cited from earlier work
human = details: may cause harmful or lethal effect on human in case of being dosed excessively; cited from earlier work
[2] = system: fungi, such as Alternaria sp., Aspergillus flavus, Aspergdlus fumigatus, Candida albicans, Curvularia sp., Drechslera sp., Fusarium sp., Mucor sp., Penicillium …; details: Mahajan et al. 1982; cited from earlier work
Candida albicans = details: oral, 350-700 mg/kg; Mirska et al. 1972; cited from earlier work
male ICR mice = details: mouse, in vivo
[3] = system: cultured lung cells derived from chinese hamster; type: cell-based
acute oral toxicity = details: rat, in vivo, po, rats
Experimental: (§1) Meanwhile, the toxicity test of the compound of the present invention was performed using […]. The compound was suspended in propylene glycol. The resulting suspension was medicated respectively on 5 female rats and 5 male rats(SD) of which age are 5 weeks, via oral after 12 hour starvation. The general symtoms, weight change and lethal case of the above rats were investigated. In cases of tests of the compound Nos. 25, 62, 63 and 85 (delivery of 2,000 mg/kg), the general symtom and weight change were normal and the lethal case was not observed. […] The toxicity data on the compound Nos. 25, 62, 63 and 85 are described in the following Table 5. In light forgoings, the compounds of the present invention are safe in toxicity and have the excellent lethal effect and growth-inhibition effect against fungus.

rats = experiment: acute oral toxicity; details: rat, in vivo
Experimental: as §1

salmonella typhimurium = experiment: bacterial reverse mutation test (Ames test); type: cell-based
C. albicans IFO 1385 = experiment: MIC; type: cell-based, Candida albicans; details: Candida albicans, IFO1385; C. albicans IFO 1385; read-out: MIC
C. parapsilosis = experiment: MIC; type: cell-based; details: Lodderomyces parapsilosis; C. parapsilosis; read-out: MIC
C. albicans ATCC 28838 = experiment: MIC; type: cell-based, Candida albicans; details: Candida albicans, ATCC28838; C. albicans ATCC 28838; read-out: MIC
C. albicans ATCC 10231 = experiment: MIC; type: cell-based; details: Candida albicans, ATCC10231; C. albicans ATCC 10231; read-out: MIC
C. albicans ATCC 11651 = experiment: MIC; type: cell-based, Candida albicans; details: Candida albicans, ATCC11651; C. albicans ATCC 11651; read-out: MIC
C. albicans OY 003 = experiment: MIC; type: cell-based, Candida albicans; details: Candida albicans, OY003; C. albicans OY 003; read-out: MIC
C. albicans OY 019 = experiment: MIC; type: cell-based, Candida albicans; details: Candida albicans, OY019; C. albicans OY 019; read-out: MIC
C. albicans KCTC 1940 = experiment: MIC; type: cell-based, Candida albicans; details: Candida albicans, KCTC1940; C. albicans KCTC 1940; read-out: MIC
fungal infection of foot = experiment: 0.5% creamy formulation applied on male patients with fungal infection of foot; type: in vivo, human (male patients); details: 0.5% cream once a day for five days
Source text: The above 0.5% creamy formulation of the compound No. 62 was applied on infected area of 10 male patients with fungal infection of foot, in a proper amount once a day for five days.

C. glabrata = experiment: MIC; type: cell-based; details: Nakaseomyces glabratus; C. glabrata; read-out: MIC
C. albicans U.K. = experiment: MIC; type: cell-based; details: Candida albicans; C. albicans U.K.; read-out: MIC
E. floccosum = experiment: MIC; type: cell-based, Epidermophyton floccosum; details: Epidermophyton floccosum; E. floccosum; read-out: MIC
Epidermophyton floccosum = experiment: Antifungal efficacy of creamy formulation against local fungal skin infection; type: in vivo, mouse (SKH/1, hairless, male); details: 0.5% cream, topical
Experimental: Specific pathogen free SKH/1 male mouse(Hairless) of which weight is 30-35 g and age is 5 weeks, was reared with sterilized water and feed for 12 night/day in the condition of 21-23° C. and of 50% relative humidity. Five mice were allocated by each group. After skin infection, each mouse was taken in separate cage. The strain of microorganism for infection(Epidermophyton floccosum) was cultivated on a flat medium of SDA(Sabouraud Dextrose Agar) for 5-7 days and after confirmation of macrocomidia, 3 ml of RPMI (Rosewell Park Memorial Institute) 1640 media per each flat medium was added thereto and then scraped well using loop to remove hyphae from media. The floating liquid was suspended briefly and then diluted with RPMI 1640 media to adjust the concentration of hyphae to 2×10^6 CFU/ml. Mouse was anesthetized and marked on back site(lumbosacral area) in a shape of circle of which diameter is 1.5 cm. Then, the inner part of marked skin was scratched with sand paper. The scratched part was covered with a filter paper to preserve inoculated microorganism for a long time and thereby stimulating the skin continuously. 0.2 ml of fungus solution of which concentration is adjusted as described above, was inoculated between the skin and filter paper. 5 Days after the inoculation, the filter paper was removed and the infection of skin was examined. The test formulations, 0.5% creamy formulations of the compounds Nos. 62 and 85, 1.0% creamy formulation of Terbinafine(Lamisile cream) and a placebo was applied on the infected areas in a same amount once a day for 5 days. The clinical evaluation on the change of the infected area in 5 days after the inoculation was performed and expressed numerically from 0 to 4. The daily change of the infected area was checked every day. The result of each group was compared with each other.
1: Mild erythema or small number of skin eruption
2: Well-demarcated erythema with scales or mild skin eruption of infected area
3: Wide area of marked skin eruption, scales, swelling or severe skin eruption with partial swelling and scales
4: The same as those of control, or severe skin eruption in entire lesion
The result was calculated as follows;
T: Average score of clinical evaluation in drug treated area
K: Average score of clinical evaluation in placebo control group
Moreover, the antifungal efficacies of the 0.5% creamy formulation of the compounds Nos. 29, 35, 60, 62, 63 and 85, and 1% creamy formulation of Terbinafme (Lamisil cream), which are measured by applying the above formulations on the skin infected with Epidermophyton floccosum of mouse which is the standard animal for the test of local fungal skin infection, i.e, Specific Pathogen Free SKH/1, are described in the following Table 4.

C. glulliermendi = experiment: MIC; type: cell-based; details: C. glulliermendi; read-out: MIC
C. krusei = experiment: MIC; type: cell-based; details: Pichia kudriavzevii; C. krusei; read-out: MIC

| Compound | nucleus test (micronucleous test) (male ICR mice) | chromosome abnormality test [3] | LD50 (acute oral toxicity; female) [mg/kg] | LD50 (acute oral toxicity; male) [mg/kg] | lethal case (rats) | AMES test (salmonella typhimurium) | MIC (C. albicans IFO 1385) [µg/mL] | MIC (C. parapsilosis) [µg/mL] | MIC (C. albicans ATCC 28838) [µg/mL] | MIC (C. albicans ATCC 10231) [µg/mL] | MIC (C. albicans ATCC 11651) [µg/mL] | MIC (C. albicans OY 003) [µg/mL] | MIC (C. albicans OY 019) [µg/mL] | MIC (C. albicans KCTC 1940) [µg/mL] | MIC (C. glabrata) [µg/mL] | MIC (C. albicans U.K.) [µg/mL] | MIC (E. floccosum) [µg/mL] | Efficacy (%) 0 day later (Epidermophyton floccosum) [%] | Efficacy (%) 1 day later (Epidermophyton floccosum) [%] | Efficacy (%) 2 day later (Epidermophyton floccosum) [%] | further results |
| --- | --- | --- | --- | --- | --- | --- | --- | --- | --- | --- | --- | --- | --- | --- | --- | --- | --- | --- | --- | --- | --- |
| COc1ccc2cc3[n+](cc2c1OC)CCc1cc2c(cc1-3)OCO2 [Berberine chloride] |  |  |  |  |  |  |  |  |  |  |  |  |  |  |  |  |  |  |  |  | antibacterial activity ([1]; Ukita et al. 1949): exhibits antibacterial activity |
| COc1ccc2cc3[n+](cc2c1OC)CCc1cc2c(cc1-3)OCO2 [berberine sulfate] |  |  |  |  |  |  |  |  |  |  |  |  |  |  |  |  |  |  |  |  | toxicity (human): exhibits intense toxicity; concentration inhibiting the growth of fungi [2]: 10 to 25 mg/mL; effect in mice infected with Candida albicans (Candida albicans): effective |
| COc1ccc2c(Cc3cccc(C(F)(F)F)c3)c3[n+](cc2c1OC)CCc1cc2c(cc1-3)OCO2 [compound 25, 13-(3-trifluoromethylbenzyl)berberine chloride] | negative | negative | > 2500 | > 3000 | not observed | negative |  |  |  |  |  |  |  |  |  |  |  |  |  |  |  |
| COc1ccc2c(Cc3ccc(C(C)(C)C)cc3)c3[n+](cc2c1OC)CCc1cc2c(cc1-3)OCO2 [compound 62, 13-(4-t-butylbenzyl)berberine chloride] | negative | negative | > 2700 | > 3700 | not observed | negative | 6.25 | > 100 | 0.78 | 6.25 | 0.78 | 0.78 | 0.78 | 0.78 | > 100 | 6.25 | 12.5 | 0 | 40.0 | 55.4 | remedial effect (fungal infection of foot; in 8 of 10 male patients): more than 98%; patients exhibiting remedial effect more than 98% (fungal infection of foot; of 10 male patients): 8 Patients; Efficacy (%) 3 day later (Epidermophyton floccosum): 69.4%; Efficacy (%) 4 day later (Epidermophyton floccosum): 72.6%; Efficacy (%) 5 day later (Epidermophyton floccosum): 76.3%; Efficacy (%) 6 day later (Epidermophyton floccosum): 79.2%; Efficacy (%) 7 day later (Epidermophyton floccosum): 85.4%; MIC (C. glulliermendi): 12.5 µg/mL; MIC (C. krusei): 3.12 µg/mL |
| COc1ccc2c(Cc3ccc(C(C)C)cc3)c3[n+](cc2c1OC)CCc1cc2c(cc1-3)OCO2 [compound 63, 13-(4-i-propylbenzyl)berberine chloride] | negative | negative | > 2000 | > 2500 | not observed | negative | 6.25 | > 100 | 0.78 | 6.25 | 0.78 | 6.25 | 1.56 | 1.56 | > 100 | 6.25 | 12.5 | 0 | 42.5 | 52.5 | Efficacy (%) 3 day later (Epidermophyton floccosum): 59.8%; Efficacy (%) 4 day later (Epidermophyton floccosum): 64.6%; Efficacy (%) 5 day later (Epidermophyton floccosum): 73.6%; Efficacy (%) 6 day later (Epidermophyton floccosum): 75.6%; Efficacy (%) 7 day later (Epidermophyton floccosum): 80.2%; MIC (C. glulliermendi): 12.5 µg/mL; MIC (C. krusei): 3.12 µg/mL |
| CCCOc1cc2c(cc1OCCC)-c1cc3ccc(OCCC)c(OCCC)c3c[n+]1CC2 [compound 85, 2,3,9,10-tetrapropoxy protoberberine iodide] | negative | negative | > 5000 | > 5000 | not observed | negative | 6.25 | 12.5 | 0.78 | 6.25 | 0.4 | 0.4 | 0.4 | 0.4 | > 100 | 50 | > 100 | 0 | 34.5 | 38.8 | Efficacy (%) 3 day later (Epidermophyton floccosum): 42.5%; Efficacy (%) 4 day later (Epidermophyton floccosum): 54.6%; Efficacy (%) 5 day later (Epidermophyton floccosum): 63.2%; Efficacy (%) 6 day later (Epidermophyton floccosum): 68.0%; Efficacy (%) 7 day later (Epidermophyton floccosum): 70.5%; MIC (C. glulliermendi): > 100 µg/mL; MIC (C. krusei): 1.56 µg/mL |
| COc1ccc2c(c1OC)CN1CCc3cc4c(cc3C1C2)OCO4 (stereo not shown) [tetrahydroberberine] |  |  |  |  |  |  |  |  |  |  |  |  |  |  |  |  |  |  |  |  | antibacterial effect of derivatives without quaternary ammonium salt ([1]; Pitea et al. 1972): exhibits less effect |

From patent publication US6008356A, “Pharmaceutically available protoberberine salts derivatives, and protoberberine salts derivatives, and protoberberine derivatives and salts thereof” (priority 1998, dated 1999)
